Measured values reported in US7902229B2, “Anthranilamide pyridinureas as vascular endothelial growth factor (VEGF) receptor kinase inhibitors” (Bayer Schering Pharma AG, priority 2004, dated 2011).

Experiments:
[1] = molecular target: T1, KDR-Kinase (VEGFR-2) (Homo sapiens, UniProt P35968); assay: KDR Kinase Inhibition; format: biochemical; settings: GST-kinase domain fusion construct of the KDR kinase; poly(Glu4Tyr) substrate, 32P-ATP, 10 min
T1 construct: GST-kinase domain fusion construct of the KDR kinase; GST
Experimental: Kinase activity was measured with a GST-kinase domain fusion construct of the KDR kinase according to the following protocol to obtain concentration response curves. Components were added into a microtiterplate in the following sequence: 10 μl of inhibitor in threefold final concentration [3% DMSO in buffer (40 mM TrisCl pH 7.5; 1 mM DTT, 1 mM MnCl2, 10 mM MgCl2, 2.5 Promille Polyethyleneglycol 20000)] and 10 μ, of substrate mixture [24 μM ATP, 24 μg/ml poly(Glu4Tyr) in buffer, specific activity approx. 500 cpm/pmol ^32P-[…]ATP]. Reaction was started by adding 10 μl of enzyme preparation diluted appropriately in buffer that contains 10 μM vanadate. After incubation for exactly 10 min the reaction was stopped by adding of 10 μl stop solution (250 mM EDTA). 10 μl of the reaction mixture were transferred to phosphocellulose filters. The filters were washed in 0.1% phosphoric acid, dried before meltilex-scintillator was applied (Wallac, Perkin-Elmer) and the radioactivity was counted.

[2] = molecular target: T2, human Cytochrome P 450 isoenzyme 2C19 (Homo sapiens, UniProt P33261); assay: Cytochrome P450 Inhibition (2C19); format: in vitro ADME; settings: baculovirus/insect cell-expressed human isoenzyme, according to Crespi et al.; read-out: IC50 CYP 2C19
T2 construct: host or cells: baculovirus/insect cells
Experimental: (§1) Cytochrome P450 Inhibition
(§2) The Cytochrome P450 isoenzyme inhibition was performed according to the publication of Crespi et al. (Anal. Biochem., 1997, 248, 188-190) with use of the baculovirus/insect cell-expressed, human Cytochrome P 450 isoenzymes (2C9 and 2C19).

[3] = molecular target: T3, human Cytochrome P 450 isoenzyme 2C9 (Homo sapiens, UniProt P11712); assay: Cytochrome P450 Inhibition (2C9); format: in vitro ADME; settings: baculovirus/insect cell-expressed human isoenzyme, according to Crespi et al.; read-out: IC50 CYP 2C9
T3 construct: host or cells: baculovirus/insect cells
Experimental: as §1, §2

T1 sequence (P35968 834-1162 limits assumed, species assumed): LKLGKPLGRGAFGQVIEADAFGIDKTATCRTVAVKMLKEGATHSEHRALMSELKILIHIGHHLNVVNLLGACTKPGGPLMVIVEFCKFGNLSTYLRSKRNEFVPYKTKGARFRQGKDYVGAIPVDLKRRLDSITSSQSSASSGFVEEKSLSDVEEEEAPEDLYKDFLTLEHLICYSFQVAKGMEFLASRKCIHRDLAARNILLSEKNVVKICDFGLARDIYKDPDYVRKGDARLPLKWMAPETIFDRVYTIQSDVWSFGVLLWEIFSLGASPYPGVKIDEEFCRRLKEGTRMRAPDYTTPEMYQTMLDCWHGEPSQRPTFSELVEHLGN
T2 sequence (P33261 whole entry): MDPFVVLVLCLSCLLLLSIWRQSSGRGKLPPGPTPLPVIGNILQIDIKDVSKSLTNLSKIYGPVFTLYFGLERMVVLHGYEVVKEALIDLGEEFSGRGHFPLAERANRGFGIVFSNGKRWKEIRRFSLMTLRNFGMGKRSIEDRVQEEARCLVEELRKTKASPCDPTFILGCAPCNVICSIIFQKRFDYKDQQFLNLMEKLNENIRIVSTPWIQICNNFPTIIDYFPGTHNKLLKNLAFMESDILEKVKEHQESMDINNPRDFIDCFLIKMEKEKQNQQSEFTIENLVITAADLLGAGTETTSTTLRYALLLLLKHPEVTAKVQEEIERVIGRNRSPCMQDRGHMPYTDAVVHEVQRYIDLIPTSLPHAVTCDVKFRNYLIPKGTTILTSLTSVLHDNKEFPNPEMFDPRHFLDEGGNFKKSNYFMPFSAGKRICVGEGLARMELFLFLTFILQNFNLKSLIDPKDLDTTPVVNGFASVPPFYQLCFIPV
T3 sequence (P11712 whole entry): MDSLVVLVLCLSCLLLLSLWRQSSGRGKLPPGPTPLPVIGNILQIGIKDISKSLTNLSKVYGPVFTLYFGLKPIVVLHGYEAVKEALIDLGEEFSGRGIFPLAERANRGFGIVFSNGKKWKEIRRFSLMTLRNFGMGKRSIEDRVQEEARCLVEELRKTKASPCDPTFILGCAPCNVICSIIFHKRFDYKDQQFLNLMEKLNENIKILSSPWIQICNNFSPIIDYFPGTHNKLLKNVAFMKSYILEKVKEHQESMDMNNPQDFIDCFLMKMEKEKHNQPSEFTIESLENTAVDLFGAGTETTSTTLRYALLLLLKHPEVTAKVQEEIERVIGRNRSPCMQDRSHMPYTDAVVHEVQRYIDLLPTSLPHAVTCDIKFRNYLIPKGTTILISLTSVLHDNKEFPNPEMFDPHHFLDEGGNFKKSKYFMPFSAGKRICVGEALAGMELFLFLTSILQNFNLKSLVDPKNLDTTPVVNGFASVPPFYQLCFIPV

| IC50 [1] | melting point | IC50 [2] | IC50 [3] | Compound |
| --- | --- | --- | --- | --- |
| 0.025 µM | 184 °C | 19 µM | 6.7 µM | CN(C)C(=O)Nc1cc(CNc2ccccc2C(=O)Nc2ccc3cn(C)nc3c2)ccn1 [Example 1.0, 2-{[2-(3,3-dimethyl-ureido)-pyridin-4-ylmethyl]-amino}-N-(2-methyl-2H-indazol-6-yl)-benzamide] |
| 0.035 µM | – | 9.9 µM | 3.8 µM | CCN(CC)C(=O)Nc1cc(CNc2ccccc2C(=O)Nc2ccc3cn(C)nc3c2)ccn1 [Example 1.1, 2-{[2-(3,3-diethyl-ureido)-pyridin-4-ylmethyl]-amino}-N-(2-methyl-2H-indazol-6-yl)-benzamide] |
| 0.024 µM | – | 26 µM | 6.6 µM | CCN(C)C(=O)Nc1cc(CNc2ccccc2C(=O)Nc2ccc3cn(C)nc3c2)ccn1 [Example 1.4, 2-{[2-(3-ethyl-3-methyl-ureido)-pyridin-4-ylmethyl]-amino}-N-(2-methyl-2H-indazol-6-yl)-benzamide] |
| 0.036 µM | – | 6.4 µM | 10 µM | CN(C)C(=O)Nc1cc(CNc2ccccc2C(=O)Nc2ccc3c(ccc(=O)n3C)c2)ccn1 [Example 2.2, 2-{[2-(3,3-dimethyl-ureido)-pyridin-4-ylmethyl]-amino}-N-(1-methyl-2-oxo-1,2-dihydro-quinolin-6-yl)-benzamide] |
